Reference: patent publication US10660789B2, “1,4-dihydropyridine derivatives with HSP modulating activity” (Richter Gedeon NYRT., priority 2011, dated 2020)
Where a name gives a salt, the structure may show the parent alone.

What was measured:
[1] = tested on: Hsp25; assay: Other in vitro effects, Hsp25 (Table 3); format: cell-based, mouse and human; parameters: key: +: co-inducing activity; −: silencing activity; 0: with the experimental methods applied no other HSP modulating effects could be identified
Protocol: The Hsp co-inducing effect of the compounds on stress response was tested on B16 mouse melanoma and SHSY5Y human neuroblastoma cell lines stably transfected with Hsp promoter probing plasmids. This kind of promoter probing, using the promoter region of a given gene conjugated with fluorescent protein is used as a best and fastest test system for finding drugs which modulate the activity of the gene followed by the given promoter (Wyshocka et al., Mol. Cel. Biochem. 215:153-156, 2000).
Reporter plasmids, containing the Hsp70 and/or Hsp25 promoter conjugated to either YFP or GFP (yellow or green fluorescent protein), were stably transfected into the cells and the expression of YFP or GFP was followed by flow cytometry. Cells were either kept at 37° C. or exposed to heat shock at 42° C. for 1 hour followed by a 16 hour recovery period at 37° C. in the presence or absence of different concentrations of the test compound. After recovery the expression of YFP or GFP which is in straight correlation with the promoter activity of Hsp70 or Hsp27 genes was followed by measuring the fluorescence intensity of the cells by flow cytometry. Fluorescence intensity is in straight correlation with the amount of fluorescent protein (GFP or YFP) produced under the control of hsp promoter. The mean fluorescence intensity of YFP or GFP produced is shown as “Hsp promoter activity”.
Cells were homogenously distributed on 6-well plates in 1×10^5 cells/well density. B16-pHsp25-GFP and B16-pHsp70-YFP melanoma cells were grown in RPMI-1640 medium supplemented with 10% Fetal bovine serum (FBS), penicillin (200 units/ml), streptomycin (200 μg/ml) and 2 mM L-Glutamine. […] The changes in cells' fluorescence were detected using BD FACSCalibur flow cytometer.
SY-SY5Y and B16 cells were extracted in NP-40 lysis buffer (PBS pH 7.4, 1% protease inhibitor coctail and 1% Triton X-100). […] The immune complexes were detected with chemo-luminescent substrate of peroxidase according to the supplier's instructions. Images taken from the membranes were analyzed using AlphaEase FC software.

[2] = tested on: APP mutant transgenic mice; assay: Hippocampal histology after Morris water maze (cresyl violet, tau immunohistochemistry, Golgi staining); format: in vivo, mouse
Protocol: After the Morris water maze task the animals were deeply anesthetized, and transcardialy perfused with 10 ml 4° C. phosphate-buffered saline solution (PBS), followed by 30 ml of 4° C. paraformaldehyde solution (4% in phosphate buffer, pH 7.4). The brains were removed and postfixed for 24 h in the same fixative (4° C.) and subsequently cryoprotected in 30% sucrose solution for 72 h (4° C.). Brains were cut on a cryostat in 30 μm hippocampal coronal sections, and the slices were collected and stored at 4° C. in PBS for free floating immunohistochemistry.
Cresyl violet staining (Nissl staining) is used for neuronal tissue; the stain binds to the acidic components of the neuronal cytoplasm, showing the number of functioning neurons. Slides were stained into the filtered 1% crezyl violet solution for 5 min. and were dehydrated in 50% 70%, 95%, 2×100% ethanol for 1 minute each. After that slides were placed in xylene for another 10 minutes, and coversliped.
Neurofibrillary tangles (NTFs) are intraneuronal aggregates; these are abnormal accumulations associated with neurodegenerative diseases. To visualize the presence of these structures, we used for immunostaining human PHF-tau MAb(clone AT100) primer antibody at 1:800 dilution in PBS (pH 7.4).
The methodological steps in all three immunohistological techniques were the same. After quenching of endogenous peroxidase activity and a blocking step, the sections were incubated overnight at 4° C. with the primary antibody in the presence of 20% goat serum and Triton X-100 0.2%. On the following day, the sections were washed in PBS and incubated for 1 h at room temperature with the secondary biotinylated goat anti-mouse antibody (Vector Laboratories, Burlingame, Calif., USA, 1:400). […]
Dendritic spines change their density after a CNS injury, to visualize this effect, we made Golgi staining. […] The slides were analyzed with confocal light microscopy, we counted dendritic spines 100 μm tong on hippocampal pyramidal cells, and start point was 100 μm farther from the stoma. […]

## COC(=O)C1=C(CCN(C)C)N(C)C(CCN(C)C)=C(C(=O)OC)C1c1ccc(C(F)(F)F)cc1 [Example 23, Dimethyl 4-(4-trifuoromethylphenyl)-2,6-bis-(2-dimethylaminoethyl)-1-methyl-1,4-dihydropyridine-3,5-dicarboxylate dihydrochloride]
[1]
  Other in vitro effects: Hsp25: Hsp25 0
[2]; hippocampal pyramidal cells
  Golgi staining, dendritic spine density: the spine density was the highest in the APP mutant compound of Ex. 23 treated group
[2]; hippocampus, APP mutant mice
  tau-immunohistochemistry: could inhibit the taupathology
[2]; hippocampus, versus negative control group
  cresyl-violet staining, alive neurons: more alive neurons
